# Experimental data: patent publication US8404856B2, “Non-nucleoside reverse transcriptase inhibitors” (Merck Sharp & Dohme Corp., priority 2007, dated 2013)
# Like-named read-outs stand apart in the source and are kept apart here.
# Key:
# [1] = target: HIV-1 RT enzyme (wild-type) (Human immunodeficiency virus type 1 group M subtype B, UniProt P04585); assay: ECL assay for inhibition of HIV reverse transcriptase (WT); assay type: biochemical
# Description: (§1) 100 μL reaction mixtures were initiated with a combination of primer-template substrate (10 nM final concentration) and dNTPs (0.6 μM dNTPs, 1.25 μM BrdUTP). The heterodimeric nucleic acid substrate was generated by annealing the DNA primer pD500 (described in Shaw-Reid et al., J. Biol. Chem., 278: 2777-2780; obtained from Integrated DNA Technologies) to t500, a 500 nucleotide RNA template created by in vitro transcription (see Shaw-Reid et al., J. Biol. Chem., 278: 2777-2780). After 1 hour incubation at 37° C., reactions were quenched by 10 μL of 1 N NaOH. Microtiter plates were incubated for an additional 30 minutes at room temperature and then neutralized with 10 μL of 1 N HCl. A mixture of detection buffer containing ruthenylated anti-BrdU antibody and streptavidin coated magnetic beads were added to the plate and incubated at room temperature for 1.5 hours prior to quantification via electrochemiluminescence instrument.
# [2] = target: T1, HIV reverse transcriptase with the K103N mutation (Human immunodeficiency virus type 1 group M subtype B, UniProt P04585, K690N); assay: ECL assay for inhibition of mutant HIV reverse transcriptase (K103N); assay type: biochemical, HIV-1
# T1 construct: made in house
# Description: as §1
# (§2) Analogous assays were conducted substituting mutant HIV strains to determine the […] inhibition of compounds of the present invention against mutant HIV reverse transcriptase. In one strain the reverse transcriptase has the Y181C mutation and in the other strain the reverse transcriptase has the K103N mutation. The mutations were generated with the […] site-directed mutagenesis kit (Stratagene).
# [3] = target: T2, HIV reverse transcriptase with the Y181C mutation (Human immunodeficiency virus type 1 group M subtype B, UniProt P04585, Y768C); assay: ECL assay for inhibition of mutant HIV reverse transcriptase (Y181C); assay type: biochemical, HIV-1
# T2 construct: made in house
# Description: as §1, §2
# wild type HIV-1 = assay: Spread assay: inhibition of acute HIV-1 infection of T-lymphoid cells (WT); assay type: cell-based; settings: Human immunodeficiency virus 1, T-lymphoid; wild type HIV-1, 10% FBS; read-out: Spread (WT) CIC95 (10% FBS)
# Description: (§3) Assays for the inhibition of acute HIV-1 infection of T-lymphoid cells (alternatively referred to herein as the “spread assay”) were conducted in accordance with Vacca, J. P. et al., Proc. Natl. Acad. Sci. USA 1994, 91: 4096. The assays tested for inhibition of wild type HIV-1 and of HIV strains containing the Y181C or K103N mutation. […] Table C also reports the CIC95 values of certain of the title compounds of Examples 1-25 obtained in the assays employing the Y181C mutant strain and the K103N mutant strain.
# [4] = system: HIV strain containing the K103N mutation; assay: Spread assay: inhibition of acute HIV-1 infection of T-lymphoid cells (K103N); assay type: cell-based; settings: Human immunodeficiency virus 1, T-lymphoid, read-out: Spread (K103N) CIC95 (10% FBS)
# Description: as §3
# [5] = system: HIV strain containing the Y181C mutation; assay: Spread assay: inhibition of acute HIV-1 infection of T-lymphoid cells (Y181C); assay type: cell-based; settings: Human immunodeficiency virus 1, T-lymphoid, read-out: Spread (Y181C) CIC95 (10% FBS)
# Description: as §3
# T-lymphoid cells = assay type: cell-based
# Description: Cytotoxicity was determined by microscopic examination of the cells in each well in the spread assay, wherein a trained analyst observed each culture for any of the following morphological changes as compared to the control cultures: pH imbalance, cell abnormality, cytostatic, cytopathic, or crystallization (i.e., the compound is not soluble or forms crystals in the well). The toxicity value assigned to a given compound is the lowest concentration of the compound at which one of the above changes is observed.
# [6] = wild-type HIV-1 RT, read-out: ECL Assay (WT) IC50
# [7] = K103N mutant RT, read-out: ECL Assay (K103N) IC50
# [8] = Y181C mutant RT, read-out: ECL Assay (Y181C) IC50
SMILES,"IC50 [1, 6]","IC50 [2, 7]","IC50 [3, 8]",IC95 (wild type HIV-1),IC95 [4],IC95 [5],Cytotoxicity: no cytotoxicity at concentrations up to (T-lymphoid cells),Cytotoxicity: no cytotoxicity at concentrations of up to (T-lymphoid cells),IC50 [1],IC50 [2],IC50 [3]
"N#Cc1cc(Cl)cc(Oc2nc(NCc3n[nH]c4ncccc34)c(Cl)cc2F)c1 [Compound 1-7, 3-chloro-5-({5-chloro-3-fluoro-6-[(1H-pyrazolo[3,4-b]pyridin-3-ylmethyl)amino]pyridin-2-yl}oxy)benzonitrile]",0.3 nM,1.5 nM,0.4 nM,3 nM,94 nM,13 nM,> 833 nM,–,–,–,–
"N#Cc1cc(Cl)cc(Oc2nc(NCc3n[nH]c4nc(N)ccc34)c(Cl)cc2F)c1 [Compound 2-7, 3-[(6-{[(6-amino-1H-pyrazolo[3,4-b]pyridin-3-yl)methyl]amino}-5-chloro-3-fluoropyridin-2-yl)oxy]-5-chlorobenzonitrile]",0.5 nM,0.6 nM,1 nM,3 nM,28 nM,14 nM,> 833 nM,–,–,–,–
"N#Cc1cc(Cl)cc(Oc2cc(CCc3n[nH]c4ncccc34)[nH]c(=O)c2Cl)c1 [Compound 3-8, 3-chloro-5-({3-chloro-2-oxo-6-[2-(1H-pyrazolo[3,4-b]pyridin-3-yl)ethyl]-1,2-dihydropyridin-4-yl}oxy)benzonitrile]",1.9 nM,4.7 nM,3 nM,7 nM,31 nM,19 nM,> 833 nM,–,–,–,–
"N#Cc1cc(Cl)cc(Oc2cc(CCc3n[nH]c4ncccc34)[nH]c(=O)c2)c1 [Compound 3-9, 3-chloro-5-({2-oxo-6-[2-(1H-pyrazolo[3,4-b]pyridin-3-yl)ethyl]-1,2-dihydropyridin-4-yl}oxy)benzonitrile]",3.8 nM,32 nM,11 nM,55 nM,320 nM,360 nM,> 833 nM,–,–,–,–
"N#Cc1cc(Cl)cc(Oc2cc(CCc3n[nH]c4nc(N)ccc34)[nH]c(=O)c2Cl)c1 [Compound 4-4, 3-({6-[2-(6-amino-1H-pyrazolo[3,4-b]pyridin-3-yl)ethyl]-3-chloro-2-oxo-1,2-dihydropyridin-4-yl}oxy)-5-chlorobenzonitrile]",1.6 nM,14 nM,7.9 nM,39 nM,207 nM,438 nM,> 833 nM,–,–,–,–
"N#Cc1cc(Cl)cc(Oc2c(Cl)c(CCc3n[nH]c4ncccc34)[nH]c(=O)c2Cl)c1 [Compound 5-6, 3-chloro-5-({3,5-dichloro-2-oxo-6-[2-(1H-pyrazolo[3,4-b]pyridin-3-yl)ethyl]-1,2-dihydropyridin-4-yl}oxy)benzonitrile]",1.2 nM,1.8 nM,1.6 nM,42 nM,367 nM,–,–,> 8.5 µM,–,–,–
"CCOC(=O)c1cc(Cl)cc(Oc2c(Cl)c(CCc3n[nH]c4ncccc34)[nH]c(=O)c2Cl)c1 [Compound 5-7, ethyl 3-chloro-5-({3,5-dichloro-2-oxo-6-[2-(1H-pyrazolo[3,4-b]pyridin-3-yl)ethyl]-1,2-dihydropyridin-4-yl}oxy)benzoate]",3.5 nM,52 nM,49 nM,1220 nM,–,–,–,> 8.5 µM,–,–,–
"N#Cc1cc(Cl)cc(Oc2cc(CCc3n[nH]c4ncccc34)ncc2Cl)c1 [Compound 6-5, 3-chloro-5-({5-chloro-2-[2-(1H-pyrazolo[3,4-b]pyridin-3-yl)ethyl]pyridin-4-yl}oxy)benzonitrile]",25 nM,87 nM,270 nM,103 nM,361 nM,–,–,> 8.5 µM,–,–,–
"Cc1nc(OCc2n[nH]c3ncccc23)c(Cl)c(Oc2cc(Cl)cc(C#N)c2)c1Cl [Compound 7-1, 3-chloro-5-{[3,5-dichloro-2-methyl-6-(1H-pyrazolo[3,4-b]pyridin-3-ylmethoxy)pyridin-4-yl]oxy}benzonitrile]",1.3 nM,27 nM,3.5 nM,100 nM,1700 nM,–,–,> 8.5 µM,–,–,–
"N#Cc1cc(Cl)cc(Oc2cc(NCc3n[nH]c4ncccc34)[nH]c(=O)c2Cl)c1 [Compound 8-5, 3-chloro-5-({3-chloro-2-oxo-6-[(1H-pyrazolo[3,4-b]pyridin-3-ylmethyl)amino]-1,2-dihydropyridin-4-yl}oxy)benzonitrile]",0.9 nM,11 nM,5.7 nM,34 nM,833 nM,–,–,> 8.5 µM,–,–,–
"N#Cc1cc(Cl)cc(Oc2cc(Cn3c(=O)[nH]c4ccccc43)[nH]c(=O)c2Cl)c1 [Compound 9-8, 3-chloro-5-({3-chloro-2-oxo-6-[(2-oxo-2,3-dihydro-1H-benzimidazol-1-yl)methyl]-1,2-dihydropyridin-4-yl}oxy)benzonitrile]",4.8 nM,13 nM,6.3 nM,638 nM,–,–,–,> 8.5 µM,–,–,–
"Cc1ccn(Cc2n[nH]c3ncccc23)c(=O)c1Oc1cc(Cl)cc(C#N)c1 [Compound 11-7, 3-chloro-5-{[4-methyl-2-oxo-1-(1H-pyrazolo[3,4-b]pyridin-3-ylmethyl)-1,2-dihydropyridin-3-yl]oxy}benzonitrile]",2.5 nM,3.7 nM,3.2 nM,7 nM,14 nM,–,> 833 nM,–,–,–,–
"Cc1ccn(CCc2n[nH]c3ncccc23)c(=O)c1Oc1cc(Cl)cc(C#N)c1 [Compound 12-7, 3-chloro-5-({4-methyl-2-oxo-1-[2-(1H-pyrazolo[3,4-b]pyridin-3-yl)ethyl]-1,2-dihydropyridin-3-yl}oxy)benzonitrile]",25 nM,58 nM,51 nM,248 nM,447 nM,–,> 833 nM,–,–,–,–
"CN(Cc1ccccc1Cl)C(=O)Cn1ccc(C(F)(F)F)c(Oc2cc(Cl)cc(C#N)c2)c1=O [Compound 14, N-(2-chlorobenzyl)-2-[3-(3-chloro-5-cyanophenoxy)-2-oxo-4-(trifluoromethyl)pyridin-1(2H)-yl]-N-methylacetamide]",300 nM,440 nM,290 nM,330 nM,284 nM,–,> 833 nM,–,–,–,–
"N#Cc1cc(Cl)cc(Oc2c(C(F)(F)F)ccn(CC(=O)Nc3ccc(S(N)(=O)=O)cc3Cl)c2=O)c1 [Compound 15, N-[4-(aminosulfonyl)-2-chlorophenyl]-2-[3-(3-chloro-5-cyanophenoxy)-2-oxo-4-(trifluoromethyl)pyridin-1 (2H)-yl]acetamide]",3.3 nM,4.8 nM,3.9 nM,10 nM,6 nM,–,> 833 nM,–,–,–,–
"N#Cc1cc(Cl)cc(Oc2c(Cl)ccn(Cc3n[nH]c4ncccc34)c2=O)c1 [Compound 21-8, 3-chloro-5-{[4-chloro-2-oxo-1-(1H-pyrazolo[3,4-b]pyridin-3-ylmethyl)-1,2-dihydropyridin-3-yl]oxy}benzonitrile]",0.8 nM,1.4 nM,1 nM,3 nM,–,8 nM,> 833 nM,–,–,–,–
N#Cc1cc(Cl)cc(Oc2cc(C(O)c3n[nH]c4ncccc34)[nH]c(=O)c2Cl)c1 (centres unmarked) [Compound 25-2],–,–,–,28 nM,180 nM,–,–,–,3.2 nM,13 nM,4.7 nM
